Source: publication PMC12287035, “Anticandidal activity of Clinopodium chilense essential oil” (Frontiers in Pharmacology, 2025)
Values after ≈ are worked out from the molar mass of the structure shown. Like-named read-outs stand apart in the source and are kept apart here.

Legend:
[1] = test system: CCD 841 CoN (colon epithelial cells); test: Sulforhodamine B (SRB) cell viability assay; assay type: cell-based; details: Homo sapiens, 72 h, non-tumorigenic cells
Experimental: (§1) The cytotoxicity of C. chilense EO was evaluated in two non-tumorigenic human cell lines: CCD 841 CoN (colon epithelial cells) and HEK-293T (human embryonic kidney). All tested cell lines were obtained from the AmericanType Culture Collection (Rockville, MD, United States). The different cell lines were maintained as monolayers in a culture medium (HAM-F10 + DMEM, 1:1) supplemented with 10% fetal bovine serum, as well as antibiotics (0.01 mg/mL streptomycin and 0.005 mg/mL penicillin). The cells were incubated at 37 °C in a humidified 5% CO2 atmosphere.
(§2) To determine the effect on cell viability of C. chilense EO, the sulforhodamine B (SRB)assay was used to measure the number of viable cells after each treatment ([Silva et al., 2022]). Cells were seeded in 96-well plates at 3 × 10^3 cells/well in 100 μL of culture medium and treated in triplicate with increasing concentrations of essential oil (0.625–100 μg/mL) for 72 h at 37°C and 5% CO2. The cells which received only the medium containing 0.1% DMSO served as the control group. […] The dye is solubilized with 150 μL/well of 10 mM Tris Base, and the absorbance is then measured at a wavelength of 540 nm in a microplate reader. […]

[2] = test system: HEK-293T (human embryonic kidney); test: Sulforhodamine B (SRB) cell viability assay; assay type: cell-based; details: 72 h, non-tumorigenic cells
Experimental: as §1, §2

C. albicans (10,935) = test: Broth microdilution antifungal susceptibility (CLSI M27-A3), MIC and MFC; assay type: cell-based, Candida albicans; details: for MFC / MIC: Candida albicans, 48 h
Experimental: (§3) The antifungal activity of the EO and its main components was evaluated against reference strains and clinical isolates of Candida. The reference strains C. albicans (ATCC 7978) and C. parapsilosis (ATCC 22019) were used, as well as the clinical isolates C. albicans 10,935, C. dubliniensis 3240, Candida glabrata 10,912, C. guilliermondii 12,204, C. lusitaniae 2305, and Candida tropicalis 9841. The clinical isolates were obtained from patients of the Base Hospital of […], Los Ríos Region, Chile. After identification, the microorganisms were included in the pathogenic fungal collection (Bioassay Laboratory of University of […]íso). They are maintained in Sabouraud Dextrose Broth (SDB) with glycerol at -80°C according to established protocols ([Madrid et al., 2012]). […] Briefly, cultures of all yeast were placed on Sabouraud Dextrose Agar (SDA) and incubated for 24-72 h at temperature 37°C. Colonies of this culture were suspended in sterile 0.85% NaCl and the inoculum was standardized according to the scale of 0.5 McFarland (1-5 × 10^6 CFU/mL). The antifungal assay was conducted in 96-well plates. […] A volume of 100 μL of inoculum suspension was added to each well with the exception of the sterility control where sterile water was added to the well instead. […] Following a 24-48 h incubation at 37°C, the absorbance of the plates was measured at 540 nm using a VERSA Max microplate reader (Molecular Devices, Sunnyvale, CA, United States) for spectrophotometric analysis. […] The lowest concentration with no visible growth was defined as MFC indicating 99.5% death of the original inoculum. All experiments were performed in triplicate and repeated three times for reproducibility.

C. albicans (ATCC 7978) = test: as above; assay type: cell-based, Candida albicans; details: for MFC / MIC: Candida albicans
Experimental: as §3

[3] = test system: C. parapsilosis (ATCC 22019); test: as above; assay type: cell-based, Candida parapsilosis; details: Lodderomyces parapsilosis
Experimental: as §3

[4] = test system: C. guilliermondii (12,204); test: as above; assay type: cell-based; details: Meyerozyma guilliermondii, 48 h
Experimental: as §3

C. lusitaniae (2305) = test: as above; assay type: cell-based; details: for MFC / MIC: Clavispora lusitaniae, 48 h; for MFC/MIC ratio: C. lusitaniae
Experimental: as §3

C. tropicalis (9841) = test: as above; assay type: cell-based; details: Candida tropicalis, 48 h
Experimental: as §3

C. glabrata (10,912) = test: as above; assay type: cell-based, Candida glabrata; details: for MFC / MIC: Nakaseomyces glabratus, 48 h
Experimental: as §3

Candida spp. = test: Broth microdilution antifungal susceptibility, summary over all tested strains; assay type: cell-based; details: for MIC: Candida, summary over all tested strains
Experimental: as §3

[5] = C. albicans (10,935), clinical isolate, read-out: MFC
[6] = C. albicans (10,935), clinical isolate, read-out: MIC
[7] = ATCC7978, C. albicans (ATCC 7978), 48 h, read-out: MFC
[8] = ATCC7978, C. albicans (ATCC 7978), 48 h, read-out: MIC
[9] = ATCC22019, C. parasilopsis (ATCC 22019), 48 h, read-out: MFC
[10] = ATCC22019, C. parasilopsis (ATCC 22019), 48 h, read-out: MIC
[11] = C. guilliermondii (12,204), clinical isolate, read-out: MFC
[12] = C. guilliermondii (12,204), clinical isolate, read-out: MIC
[13] = C. lusitaniae (2305), clinical isolate, read-out: MFC
[14] = C. lusitaniae (2305), clinical isolate, read-out: MIC
[15] = C. tropicalis (9841), clinical isolate, read-out: MFC
[16] = C. tropicalis (9841), clinical isolate, read-out: MIC
[17] = C. glabrata (10,912), clinical isolate, read-out: MFC
[18] = C. glabrata (10,912), clinical isolate, read-out: MIC
[19] = as stated in the text for several or all strains
[20] = remaining species/strains, those not named with ratio 1

Row | SMILES | MFC (C. albicans (10,935); [5]) | MIC (C. albicans (10,935); [6]) | MFC (C. albicans (ATCC 7978); [7]) | MIC (C. albicans (ATCC 7978); [8]) | MFC [3, 9] | MIC [3, 10] | MFC [4, 11] | MIC [4, 12] | MFC (C. lusitaniae (2305); [13]) | MIC (C. lusitaniae (2305); [14]) | MFC (C. tropicalis (9841); [15]) | MIC (C. tropicalis (9841); [16]) | MFC (C. glabrata (10,912); [17]) | MIC (C. glabrata (10,912); [18]) | further results
1 | O=c1[nH]cc(F)c(=O)[nH]1 [5-FU, 5-fluorouracil] |  |  |  |  |  |  |  |  |  |  |  |  |  |  | IC50 [1]: 56.4 ± 0.31 µg/mL (≈ 434 µM); IC50 [2]: 18.3 ± 0.56 µg/mL (≈ 141 µM)
2 | C[C@@H]1[C@H](O)[C@@H](C)/C=C/C=C/C=C/C=C/C=C/C=C/C=C/[C@H](O[C@@H]2O[C@H](C)[C@@H](O)[C@H](N)[C@@H]2O)C[C@@H]2O[C@](O)(C[C@@H](O)C[C@@H](O)[C@H](O)CC[C@@H](O)C[C@@H](O)CC(=O)O[C@H]1C)C[C@H](O)[C@H]2C(=O)O [C1, amphotericin B, reference compound] | 256 µg/mL (≈ 277 µM) | 128 µg/mL (≈ 139 µM) | 2 µg/mL (≈ 2.16 µM) | 1 µg/mL (≈ 1.08 µM) | 1 µg/mL (≈ 1.08 µM) | 0.5 µg/mL (≈ 0.541 µM) | 128 µg/mL (≈ 139 µM) | 64 µg/mL (≈ 69.3 µM) | 128 µg/mL (≈ 139 µM) | 64 µg/mL (≈ 69.3 µM) | 64 µg/mL (≈ 69.3 µM) | 32 µg/mL (≈ 34.6 µM) | 256 µg/mL (≈ 277 µM) | 128 µg/mL (≈ 139 µM) | 
3 | OC(Cn1cncn1)(Cn1cncn1)c1ccc(F)cc1F [C2, fluconazole, reference compound] | 4 µg/mL (≈ 13.1 µM) | 2 µg/mL (≈ 6.53 µM) | 1 µg/mL (≈ 3.27 µM) | 0.5 µg/mL (≈ 1.63 µM) | 2 µg/mL (≈ 6.53 µM) | 1 µg/mL (≈ 3.27 µM) | 1 µg/mL (≈ 3.27 µM) | 0.5 µg/mL (≈ 1.63 µM) | 4 µg/mL (≈ 13.1 µM) | 2 µg/mL (≈ 6.53 µM) | 1 µg/mL (≈ 3.27 µM) | 0.5 µg/mL (≈ 1.63 µM) | 64 µg/mL (≈ 209 µM) | 32 µg/mL (≈ 104 µM) | MFC/MIC ratio (Candida spp.; [19]): 2
4 | CCC(C)n1ncn(-c2ccc(N3CCN(c4ccc(OCC5COC(Cn6cncn6)(c6ccc(Cl)cc6Cl)O5)cc4)CC3)cc2)c1=O (stereo not shown) [C3, itraconazole, reference compound] | 8 µg/mL (≈ 11.3 µM) | 4 µg/mL (≈ 5.67 µM) | 1 µg/mL (≈ 1.42 µM) | 0.5 µg/mL (≈ 0.709 µM) | 1 µg/mL (≈ 1.42 µM) | 1 µg/mL (≈ 1.42 µM) | 4 µg/mL (≈ 5.67 µM) | 2 µg/mL (≈ 2.83 µM) | 8 µg/mL (≈ 11.3 µM) | 4 µg/mL (≈ 5.67 µM) | 1 µg/mL (≈ 1.42 µM) | 0.5 µg/mL (≈ 0.709 µM) | 16 µg/mL (≈ 22.7 µM) | 8 µg/mL (≈ 11.3 µM) | 
5 | CC(C)=C1CC[C@@H](C)CC1=O [Compound 1, pulegone] |  |  |  |  |  |  |  |  |  |  |  |  |  |  | MFC (C. albicans (10,935)): 128 µg/mL (≈ 841 µM); MIC (C. albicans (10,935)): 64 µg/mL (≈ 420 µM); MFC (C. albicans (ATCC 7978); ATCC7978, 48 h): 128 µg/mL (≈ 841 µM); MIC (C. albicans (ATCC 7978); ATCC7978, 48 h): 128 µg/mL (≈ 841 µM); MFC ([3]; ATCC22019, 48 h): 256 µg/mL (≈ 1680 µM); MIC ([3]; ATCC22019, 48 h): 128 µg/mL (≈ 841 µM); MFC [4]: 128 µg/mL (≈ 841 µM); MIC [4]: 64 µg/mL (≈ 420 µM); MFC/MIC ratio (C. lusitaniae (2305)): 1; MFC (C. lusitaniae (2305)): 64 µg/mL (≈ 420 µM); MIC (C. lusitaniae (2305)): 64 µg/mL (≈ 420 µM); MFC (C. tropicalis (9841)): 256 µg/mL (≈ 1680 µM); MIC (C. tropicalis (9841)): 128 µg/mL (≈ 841 µM); MFC (C. glabrata (10,912)): 128 µg/mL (≈ 841 µM); MIC (C. glabrata (10,912)): 128 µg/mL (≈ 841 µM); MFC/MIC ratio (Candida spp.; [20]): 2
6 | Cc1ccc(C(C)C)c(O)c1 [Compound 2, thymol] | 32 µg/mL (≈ 213 µM) | 32 µg/mL (≈ 213 µM) | 64 µg/mL (≈ 426 µM) | 64 µg/mL (≈ 426 µM) | 64 µg/mL (≈ 426 µM) | 32 µg/mL (≈ 213 µM) | 64 µg/mL (≈ 426 µM) | 32 µg/mL (≈ 213 µM) | 64 µg/mL (≈ 426 µM) | 32 µg/mL (≈ 213 µM) | 128 µg/mL (≈ 852 µM) | 64 µg/mL (≈ 426 µM) | 64 µg/mL (≈ 426 µM) | 64 µg/mL (≈ 426 µM) | MFC/MIC ratio (C. albicans (10,935); C. albicans (10,935)): 1; MFC/MIC ratio (C. albicans (ATCC 7978); C. albicans (ATCC 7978)): 1; MFC/MIC ratio (C. lusitaniae (2305)): 1; MFC/MIC ratio (C. glabrata (10,912); C. glabrata): 1; MIC (Candida spp.): 32 to 64 µg/mL (≈ 213 to 426 µM); MFC/MIC ratio (Candida spp.; [20]): 2
7 | CC1CCC(C(C)C)C(=O)C1 (stereo not shown) [Compound 3, isomenthone] | 128 µg/mL (≈ 830 µM) | 128 µg/mL (≈ 830 µM) | 128 µg/mL (≈ 830 µM) | 128 µg/mL (≈ 830 µM) | 128 µg/mL (≈ 830 µM) | 128 µg/mL (≈ 830 µM) | 128 µg/mL (≈ 830 µM) | 128 µg/mL (≈ 830 µM) | 64 µg/mL (≈ 415 µM) | 64 µg/mL (≈ 415 µM) | 128 µg/mL (≈ 830 µM) | 64 µg/mL (≈ 415 µM) | 128 µg/mL (≈ 830 µM) | 128 µg/mL (≈ 830 µM) | MIC (Candida spp.): 128 µg/mL (≈ 830 µM); MFC/MIC ratio (Candida spp.; [19]): 1
